PubChem BioAssay (NCI)
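Growth conditions: 96-well plates. Treatment: test compound, 48 hours, 5 concentrations. Analysis: linear interpolation between bracketing concentrations; unreached endpoints set to highest concentration. The concentration for full growth arrest is given as TGI.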

Columns and labels:
Assay in all cases: growth of human tumour cells (NCI), 48 h
A549 NSCLC = system: A549 NSCLC
HOP-92 NSCLC = system: HOP-92 NSCLC
SF-268 CNS = system: SF-268 CNS
UACC-62 melanoma = system: UACC-62 melanoma
IGROV1 ovarian = system: IGROV1 ovarian
HT29 colon = system: HT29 colon
PC-3 prostate = system: PC-3 prostate
SK-OV-3 ovarian = system: SK-OV-3 ovarian
OVCAR-4 ovarian = system: OVCAR-4 ovarian
KM12 colon = system: KM12 colon
K-562 leukemia = system: K-562 leukemia
MCF7 breast = system: MCF7 breast
MOLT-4 leukemia = system: MOLT-4 leukemia
MDA-N = system: MDA-N
SNB-19 CNS = system: SNB-19 CNS
U251 CNS = system: U251 CNS
COLO 205 colon = system: COLO 205 colon
CCRF-CEM leukemia = system: CCRF-CEM leukemia
786-0 renal = system: 786-0 renal
BT-549 breast = system: BT-549 breast
OVCAR-8 ovarian = system: OVCAR-8 ovarian
SN12C renal = system: SN12C renal
NCI-H460 lung = system: NCI-H460 lung
ACHN renal = system: ACHN renal
A498 renal = system: A498 renal
MDA-MB-231 breast = system: MDA-MB-231 breast
SK-MEL-2 melanoma = system: SK-MEL-2 melanoma
T-47D breast = system: T-47D breast
HCT-15 colon = system: HCT-15 colon
NCI-H23 lung = system: NCI-H23 lung
MALME-3M melanoma = system: MALME-3M melanoma
UO-31 renal = system: UO-31 renal
HCT-116 colon = system: HCT-116 colon
M14 melanoma = system: M14 melanoma
HS 578T breast = system: HS 578T breast
SW-620 colon = system: SW-620 colon
UACC-257 melanoma = system: UACC-257 melanoma
SK-MEL-28 melanoma = system: SK-MEL-28 melanoma
MDA-MB-435 = system: MDA-MB-435
HCC-2998 colon = system: HCC-2998 colon
SF-539 CNS = system: SF-539 CNS
OVCAR-5 ovarian = system: OVCAR-5 ovarian
NCI-H226 lung = system: NCI-H226 lung
TK-10 renal = system: TK-10 renal
HL-60(TB) leukemia = system: HL-60(TB) leukemia
OVCAR-3 ovarian = system: OVCAR-3 ovarian
SK-MEL-5 melanoma = system: SK-MEL-5 melanoma
EKVX NSCLC = system: EKVX NSCLC
SNB-75 CNS = system: SNB-75 CNS
SF-295 CNS = system: SF-295 CNS
NCI/ADR-RES ovarian = system: NCI/ADR-RES ovarian
LOX IMVI melanoma = system: LOX IMVI melanoma
RPMI-8226 leukemia = system: RPMI-8226 leukemia
DU-145 prostate = system: DU-145 prostate
CAKI-1 renal = system: CAKI-1 renal
NCI-H522 lung = system: NCI-H522 lung
HOP-62 NSCLC = system: HOP-62 NSCLC
RXF 393 renal = system: RXF 393 renal

CC1=C(C(=S)Nc2ccc(Cl)c(C(=O)OC(C)C)c2)SCCO1
TGI (A549 NSCLC): 84.1 µM
TGI (HOP-92 NSCLC): 38.5 µM
TGI (SF-268 CNS): 60.8 µM
TGI (UACC-62 melanoma): 32.6 µM
TGI (IGROV1 ovarian): 33.1 µM
TGI (HT29 colon): 32.6 µM
TGI (PC-3 prostate): 46.4 µM
TGI (SK-OV-3 ovarian): 54.8 µM
TGI (OVCAR-4 ovarian): 43.5 µM
TGI (KM12 colon): 33.5 µM
TGI (K-562 leukemia): 43.6 µM
TGI (MCF7 breast): > 100 µM
TGI (MOLT-4 leukemia): 46.6 µM
TGI (MDA-N): 39.2 µM
TGI (SNB-19 CNS): 44.5 µM
TGI (U251 CNS): 36.2 µM
TGI (COLO 205 colon): 37.4 µM
TGI (CCRF-CEM leukemia): 44 µM
TGI (786-0 renal): 30.2 µM
TGI (BT-549 breast): 37.8 µM
TGI (OVCAR-8 ovarian): 46.5 µM
TGI (SN12C renal): 32.9 µM
TGI (NCI-H460 lung): 44.6 µM
TGI (ACHN renal): 85.9 µM
TGI (A498 renal): 30.7 µM
TGI (MDA-MB-231 breast): 33.2 µM
TGI (SK-MEL-2 melanoma): 48.9 µM
TGI (T-47D breast): 51.7 µM
TGI (HCT-15 colon): 44.9 µM
TGI (NCI-H23 lung): 62.2 µM
TGI (MALME-3M melanoma): 36.9 µM
TGI (UO-31 renal): 32.8 µM
TGI (HCT-116 colon): 28.6 µM
TGI (M14 melanoma): 44 µM
TGI (HS 578T breast): 75.1 µM
TGI (SW-620 colon): 44.7 µM
TGI (UACC-257 melanoma): 47 µM
TGI (SK-MEL-28 melanoma): 35.4 µM
TGI (MDA-MB-435): 42.7 µM
TGI (HCC-2998 colon): 31.2 µM
TGI (SF-539 CNS): 38.4 µM
TGI (OVCAR-5 ovarian): > 100 µM
TGI (NCI-H226 lung): 44.6 µM
TGI (TK-10 renal): 54.3 µM
TGI (HL-60(TB) leukemia): 37.2 µM
TGI (OVCAR-3 ovarian): 52.7 µM
TGI (SK-MEL-5 melanoma): 30.8 µM
TGI (EKVX NSCLC): 54.4 µM
TGI (SNB-75 CNS): 43.7 µM
TGI (SF-295 CNS): 36.4 µM
TGI (NCI/ADR-RES ovarian): 43.2 µM
TGI (LOX IMVI melanoma): 28.8 µM
TGI (RPMI-8226 leukemia): 63.9 µM
TGI (DU-145 prostate): 57.1 µM
TGI (CAKI-1 renal): 48.5 µM
TGI (NCI-H522 lung): 44.3 µM

CC1=C(\C=C/C(C)=C/C=C/C(C)=C/C=C/C=C(C)\C=C\C=C(C)/C=C/C2=C(C)CCCC2(C)C)C(C)(C)CCC1
TGI (SF-268 CNS): > 100 µM
TGI (UACC-62 melanoma): > 100 µM
TGI (IGROV1 ovarian): > 100 µM
TGI (HT29 colon): > 100 µM
TGI (PC-3 prostate): > 100 µM
TGI (SK-OV-3 ovarian): > 100 µM
TGI (OVCAR-4 ovarian): > 100 µM
TGI (KM12 colon): > 100 µM
TGI (K-562 leukemia): > 100 µM
TGI (MCF7 breast): > 100 µM
TGI (MOLT-4 leukemia): > 100 µM
TGI (MDA-N): > 100 µM
TGI (SNB-19 CNS): > 100 µM
TGI (U251 CNS): > 100 µM
TGI (COLO 205 colon): > 100 µM
TGI (CCRF-CEM leukemia): > 100 µM
TGI (786-0 renal): > 100 µM
TGI (BT-549 breast): > 100 µM
TGI (OVCAR-8 ovarian): > 100 µM
TGI (SN12C renal): > 100 µM
TGI (NCI-H460 lung): > 100 µM
TGI (ACHN renal): > 100 µM
TGI (A498 renal): > 100 µM
TGI (MDA-MB-231 breast): > 100 µM
TGI (SK-MEL-2 melanoma): > 100 µM
TGI (T-47D breast): > 100 µM
TGI (HCT-15 colon): > 100 µM
TGI (NCI-H23 lung): > 100 µM
TGI (HOP-62 NSCLC): > 100 µM
TGI (MALME-3M melanoma): > 100 µM
TGI (UO-31 renal): > 100 µM
TGI (HCT-116 colon): 71.9 µM
TGI (M14 melanoma): > 100 µM
TGI (HS 578T breast): > 100 µM
TGI (SW-620 colon): > 100 µM
TGI (UACC-257 melanoma): > 100 µM
TGI (SK-MEL-28 melanoma): > 100 µM
TGI (MDA-MB-435): > 100 µM
TGI (HCC-2998 colon): > 100 µM
TGI (OVCAR-5 ovarian): > 100 µM
TGI (NCI-H226 lung): > 100 µM
TGI (TK-10 renal): > 100 µM
TGI (OVCAR-3 ovarian): > 100 µM
TGI (SK-MEL-5 melanoma): > 100 µM
TGI (SNB-75 CNS): > 100 µM
TGI (SF-295 CNS): > 100 µM
TGI (RXF 393 renal): > 100 µM
TGI (NCI/ADR-RES ovarian): > 100 µM
TGI (LOX IMVI melanoma): > 100 µM
TGI (DU-145 prostate): > 100 µM
TGI (NCI-H522 lung): > 100 µM

O=C1CC2(CCN(Cc3ccccc3)CC2)C(=O)N1N1CCCCC1
TGI (A549 NSCLC): > 100 µM
TGI (SF-268 CNS): > 100 µM
TGI (UACC-62 melanoma): > 100 µM
TGI (IGROV1 ovarian): > 100 µM
TGI (HT29 colon): > 100 µM
TGI (PC-3 prostate): > 100 µM
TGI (SK-OV-3 ovarian): > 100 µM
TGI (KM12 colon): > 100 µM
TGI (K-562 leukemia): > 100 µM
TGI (MCF7 breast): > 100 µM
TGI (MOLT-4 leukemia): > 100 µM
TGI (MDA-N): > 100 µM
TGI (SNB-19 CNS): > 100 µM
TGI (U251 CNS): > 100 µM
TGI (COLO 205 colon): > 100 µM
TGI (786-0 renal): > 100 µM
TGI (BT-549 breast): > 100 µM
TGI (OVCAR-8 ovarian): > 100 µM
TGI (SN12C renal): > 100 µM
TGI (NCI-H460 lung): > 100 µM
TGI (ACHN renal): > 100 µM
TGI (A498 renal): > 100 µM
TGI (MDA-MB-231 breast): > 100 µM
TGI (SK-MEL-2 melanoma): > 100 µM
TGI (T-47D breast): > 100 µM
TGI (HCT-15 colon): > 100 µM
TGI (NCI-H23 lung): > 100 µM
TGI (HOP-62 NSCLC): > 100 µM
TGI (MALME-3M melanoma): > 100 µM
TGI (UO-31 renal): > 100 µM
TGI (HCT-116 colon): > 100 µM
TGI (M14 melanoma): > 100 µM
TGI (HS 578T breast): > 100 µM
TGI (SW-620 colon): > 100 µM
TGI (UACC-257 melanoma): > 100 µM
TGI (SK-MEL-28 melanoma): > 100 µM
TGI (MDA-MB-435): > 100 µM
TGI (SF-539 CNS): > 100 µM
TGI (OVCAR-5 ovarian): > 100 µM
TGI (NCI-H226 lung): > 100 µM
TGI (TK-10 renal): > 100 µM
TGI (HL-60(TB) leukemia): > 100 µM
TGI (OVCAR-3 ovarian): > 100 µM
TGI (SK-MEL-5 melanoma): > 100 µM
TGI (SNB-75 CNS): > 100 µM
TGI (SF-295 CNS): > 100 µM
TGI (RXF 393 renal): > 100 µM
TGI (NCI/ADR-RES ovarian): > 100 µM
TGI (LOX IMVI melanoma): > 100 µM
TGI (RPMI-8226 leukemia): > 100 µM
TGI (DU-145 prostate): > 100 µM
TGI (CAKI-1 renal): > 100 µM
TGI (NCI-H522 lung): > 100 µM
